# From patent publication US20130331331A1, “HEXAPEPTIDE WITH IMPROVED ACTIVITY IN THE REPAIR OF CELLULAR DNA OF DERMAL CELLS” (priority 2011, published 2013)
# Non-standard residues stand in square brackets, D forms with d. Nle = CCCC[C@H](N)C(=O)O
# Legend:
# [1] = test system: melanocytes strain 1513c; assay: cAMP levels, radioimmunoassay, strain 1513c; assay type: cell-based, human; conditions: 45 min, 0.1 mM IBMX
# Method: (§1) Dose-response experiments were carried out on three melanocytic strains, namely strains 1513c, 1505b and 105c melanocytes were treated with 1 pM-10 nM CUV9900 or NDP-MSH, or with 0.1-10 nM MSH for 45 minutes in the presence of 0.1 mM isobutyl methylxanthine (IBMX). The results obtained from strain 1513c are shown in FIG. 3, the results obtained from strain 1505b are shown in FIG. 5a and the results obtained from strain 105c are shown in FIG. 5b. The strains 1505b and 1513c were obtained from the same human adult while the strain 105c was obtained from another human adult. Cyclic AMP is the second messenger for the melanocortin-1 receptor, and assessment is usually performed indicating cellular activity reflective of melanogenesis. Cyclic AMP levels were determined using ^125I-labeled radioimmunoassay kit (Perkin Elmer, Waltham, Mass.), in human melanocytes that were treated with 0 (control), 0.1-10.0 nM α-MSH, or 0.001-10 nM NDP-MSH or 0.001-10.0 nM CUV 9900 for […]. in the presence of 0.1 mM IBMX, a phosphodiesterase inhibitor to prevent cAMP degradation. Triplicate wells were included in each group, and duplicate samples from each well were assayed for cAMP levels. Each data point is the mean percent of control of 6 determinations/group±S.E.
# [2] = test system: melanocytic strains 1563c and 102b; assay: Ultrastructural visualization of DOPA-stained HM (electron microscopy); assay type: cell-based, human; conditions: 0.1 nM or 1 nM CUV9900, 1 nM MSH
# Method: With reference to FIGS. 14 and 15, two melanocytic strains, a lightly pigmented strain 1563c of FIG. 14 and strain 102b of FIG. 15 were plated in 4-well chamber slides and treated […] with either 0.1 nM or 1 nM CUV9900 or 1 nM MSH for a total of 6 days. Cells were processed for electron microscopy in the presence or absence of histochemical reaction with DOPA. Microtome sections were analyzed in a JEOL JEM-1230 transmission electron microscope and photomicrographs (15,000×) of the perinuclear area and dendrites were taken for each experimental group.
# [3] = test system: melanocyte strain 1513c; assay: Cell proliferation as a measure of stability, strain 1513c; assay type: cell-based, human
# Method: With continued reference to FIGS. 7, 8 and 9, to determine the stability of CUV9900 versus that of NDP-MSH and α-MSH, melanocytes were treated with 1 nM of each peptide, namely with CUV9900, NDP-MSH and α-MSH, for a total of 6 days, or with 1 nM peptides that were incubated for 5 hours at 37° C. prior to addition to the cultures, every other day, for a total of 6 days. Tyrosinase activity was measured at the end of treatment. In the experiments, cell number represents the mean percent of control of 3 determinations/group±SE, and tyrosinase activity data represent the mean percent of control of 6 determinations±S.E. It should be noted that for the sake of reproducibility the experiment of strain 1513c of FIG. 9 was performed once more 6 months later than the experiment of FIG. 7.
# Peptides were incubated at 37 degrees Celsius for 5 hours and then split into groups. Cell proliferation was a measure of stability, whereby the experiments on strain 1513c were divided in period 1 and 2 under standard conditions.
# Cell proliferation as a measure of stability is shown in Tables 1 to 3 below, wherein Table 1 is based on data derived from FIG. 7, Table 2 is based on data derived from FIG. 9, and Table 3 is based on data derived from FIG. 8: […]
# [4] = test system: melanocyte strain 102b; assay: Tyrosinase activity dose-response, strain 102b; assay type: cell-based, human; conditions: subnanomolar concentrations
# Method: Cell numbers as well as tyrosinase activity were then determined. Tyrosinase activity was calculated first at activity/10^6 cells, and then as % of control. […] The conditioned medium from each dish was collected to be assayed for tyrosinase activity, and the cell numbers were determined using a Coulter Counter. Triplicate dishes were included in each group, and duplicate samples from each dish were assayed for tyrosinase activity.
# [5] = test system: melanocytes strain 1505b; assay: Tyrosinase activity dose-response, strain 1505b; assay type: cell-based, human
# Method: Dose-response experiments were carried out on another adult strain 102b which is shown in FIG. 6 and on the strain 1505b which is a melanocyte strain: melanocytes were treated with 0.001-10 nM CUV9990 or NDP-MSH, or 0.1-10 nM MSH for a total of 6 days, with the culture medium changed and fresh peptide added every other day. Cell numbers as well as tyrosinase activity were then determined. Tyrosinase activity was calculated first at activity/10^6 cells, and then as % of control. Twenty-four hours prior the end of the experiment, melanocytes received […] (0.7 μCi/ml medium). The conditioned medium from each dish was collected to be assayed for tyrosinase activity, and the cell numbers were determined using a Coulter Counter. Triplicate dishes were included in each group, and duplicate samples from each dish were assayed for tyrosinase activity. Each data point is the mean percent of control of 6 determinations/group±S.E.
# [6] = test system: melanocytes strain 1505b; assay: cAMP levels, radioimmunoassay, strain 1505b; assay type: cell-based, human; conditions: 1 nM, 45 min, 0.1 mM IBMX
# Method: as §1
# [7] = test system: human melanocytes; assay: DNA damage as measured by 8-oxo-dG immunofluorescence; assay type: cell-based
# Description: DNA damage of cultured melanocytes following UV irradiation leads to consistent levels of photoproducts such as 8-oxo-dG. It is well established in the art (dermal carcinogenesis) that 8-oxodG is a major form of UV-induced oxidative DNA damage, which results from the generation of reactive oxygen species (ROS). The induction of 8-oxodG by 8-oxo-dGTP can be inhibited by pyrophosphohydrolases (8-[…]) that convert it to 8-oxo-dGMP. […] Immunofluorescence was detected using a microscope with FITC filters. Data were expressed as the mean fluorescence intensity±S.E., determined using the densitometry values from 6-8 randomly obtained images, using the computer assisted program Alpha Inotech Imaging System and the AlphaEase FC StandAlone Software.
substance,measurement,setting,value
"Ac-Nle-Glu His-D-Phe-Arg-Trp-NH2 (Ac-[Nle]EH[dF]RW-NH2; SMILES CCCC[C@H](NC(C)=O)C(=O)N[C@@H](CCC(=O)O)C(=O)N[C@@H](Cc1c[nH]cn1)C(=O)N[C@H](Cc1ccccc1)C(=O)N[C@@H](CCCNC(=N)N)C(=O)N[C@@H](Cc1c[nH]c2ccccc12)C(N)=O) [CUV9900, hexapeptide alpha-MSH analogue]","cAMP, potency comparison",[1]; 0.1 nM,more potent than NDP-MSH
same,"maximal level of cAMP, comparison",[1]; 10 nM,higher maximal level of cAMP than MSH
same,melanosomes and DOPA reactivity by electron microscopy,[2],increased mature (stage IV) melanosomes in the perinuclear area and more so in dendrites
same,more stable than MSH (cell proliferation),[3]; strain 1513c,3.4%
same,more stable than NDP-MSH (cell proliferation),[3]; strain 1513c,0.65%
same,"Cell proliferation (cell number), Mean","[3]; strain 1513c [2], mean",119.9% of control
same,"stimulation of tyrosinase activity, comparison",[4],greater stimulation of tyrosinase activity than NDP-MSH
same,"effect on tyrosinase activity, comparison",[5],equivalent to that of NDP-MSH
same,"minimal effective dose, tyrosinase activity",[5]; 6 days treatment,1 pM
same,"cAMP, potency comparison",[6],more potent than MSH
same,less 8-oxo-dG cellular DNA damage in comparison with alpha-MSH,[7],33%
